In US6919092B2, “Method for the management of incontinence” (ALZA Corporation, priority 1995, dated 2005):

Assay: Multiple dose crossover clinical pharmacokinetic study, IR vs CR oxybutynin
Details: plasma

CCNCC#CCOC(=O)C(O)(c1ccccc1)C1CCCCC1 (stereo not shown) [DESOXY]
t1/2 life of DESOXY compared to OXY: shorter
